Source: US9399636B2, “Substituted dipyridylamines and uses thereof” (Genentech, Inc., priority 2012, dated 2016)

target: T1, DLK (Homo sapiens, UniProt Q12852); assay: DLK TR-FRET assay; assay type: biochemical; conditions: 5 nM GST-tagged DLK (catalytic domain amino acid 1-520), 40 nM HIS-tagged MKK4 K131M substrate, 30 μM ATP, 60 minutes
T1 construct: N-terminally GST-tagged DLK (catalytic domain amino acid 1-520) (Carna Bioscience); GST (N); purchased Carna Bioscience
T1 sequence (Q12852 1-520): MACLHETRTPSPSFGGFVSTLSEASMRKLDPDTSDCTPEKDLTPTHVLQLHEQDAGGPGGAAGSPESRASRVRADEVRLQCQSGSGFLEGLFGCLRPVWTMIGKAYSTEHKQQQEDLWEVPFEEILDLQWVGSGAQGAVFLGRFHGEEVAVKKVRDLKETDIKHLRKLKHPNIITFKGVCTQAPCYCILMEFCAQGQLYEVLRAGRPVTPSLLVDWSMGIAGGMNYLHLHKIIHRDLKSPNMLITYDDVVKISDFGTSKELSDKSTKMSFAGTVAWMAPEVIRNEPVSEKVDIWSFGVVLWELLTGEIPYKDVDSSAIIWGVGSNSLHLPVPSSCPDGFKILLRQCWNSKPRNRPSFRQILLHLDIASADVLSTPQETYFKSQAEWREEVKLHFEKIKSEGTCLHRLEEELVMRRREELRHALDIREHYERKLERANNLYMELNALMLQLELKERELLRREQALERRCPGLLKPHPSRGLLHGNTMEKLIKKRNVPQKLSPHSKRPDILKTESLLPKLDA
Summary of the method: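 5 nM GST-tagged DLK catalytic domain (aa 1-520) with 40 nM HIS-MKK4 K131M substrate and 30 μM ATP in HEPES pH 7.5/MgCl2 buffer. Compounds tested in 1:3 serial dilution from 20 uM, 60 min at ambient temperature. EDTA quench, then 3 h with Eu-anti-phospho-MKK4 and D2-anti-HIS before TR-FRET read (665/615 nm).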

| Ki [µM] | SMILES |
| --- | --- |
| 0.00017 | C[C@@H]1CCCN1c1cc(C2CCN(CCO)CC2)cc(Nc2cc(C(F)(F)F)ccn2)n1 [Example 140, 2-[6′-((R)-2-Methyl-pyrrolidin-1-yl)-2′-(4-trifluoromethyl-pyridin-2-ylamino)-3,4,5,6-tetrahydro-2H-[4,4′]bipyridinyl-1-yl]-ethanol] |
| 0.002 | CC(=O)N1CCC(c2cc(Nc3cc(C(F)(F)F)ccn3)nc(N3CCC[C@H]3C)c2)CC1 [Example 141, 1-[2′-((R)-2-Methyl-pyrrolidin-1-yl)-6′-(4-trifluoromethyl-pyridin-2-ylamino)-3,4,5,6-tetrahydro-2H-[4,4′]bipyridinyl-1-yl]-ethanone] |
| 0.022 | CC(=O)N1CCC(c2cc(Nc3cc(C4CC4)ccn3)nc(N3CCC[C@H]3C)c2)CC1 [Example 142, 1-[6′-(4-Cyclopropyl-pyridin-2-ylamino)-2′-((R)-2-methyl-pyrrolidin-1-yl)-3,4,5,6-tetrahydro-2H-[4,4′]bipyridinyl-1-yl]-ethanone] |
| 0.0012 | CC(=O)N1CCC(c2cc(Nc3cc(C(F)(F)F)ccn3)nc(N3CCC(F)(F)C3)c2)CC1 [Example 143, 1-[2′-(3,3-Difluoro-pyrrolidin-1-yl)-6′-(4-trifluoromethyl-pyridin-2-ylamino)-3,4,5,6-tetrahydro-2H-[4,4′]bipyridinyl-1-yl]-ethanone] |
| 0.061 | Cc1ccnc(Nc2cc(C3CCNCC3)cc(N(C)CCO)n2)c1 [Example 144, 2-{Methyl-[6-(4-methyl-pyridin-2-ylamino)-1′,2′,3′,4′,5′,6′-hexahydro-[4,4′]bipyridinyl-2-yl]-amino}-ethanol] |
| 3.6 | Cc1ccc(Nc2cc(C3CCN(C(=O)C4CCCCC4)CC3)ccn2)nc1 [Example 145, cyclohexyl(4-(2-((5-methylpyridin-2-yl)amino)pyridin-4-yl)piperidin-1-yl)methanone] |
| 2.1 | O=C([C@@H]1CCCCN1)N1CCC(c2ccnc(Nc3ccccn3)c2)CC1 [Example 146, (S)-piperidin-2-yl(4-(2-(pyridin-2-ylamino)pyridin-4-yl)piperidin-1-yl)methanone] |
| 1.2 | Cc1ccnc(Nc2cc(C3CCN(C(=O)[C@@H]4CCCCN4)CC3)ccn2)c1 [Example 147, (S)-(4-(2-((4-methylpyridin-2-yl)amino)pyridin-4-yl)piperidin-1-yl)(piperidin-2-yl)methanone] |

The next lines start with the compound.

| SMILES | Ki [µM] |
| --- | --- |
| CC1CCCN1c1cc(C2CCN(C(=O)c3cn(C)cn3)C2)cc(Nc2cc(C(F)(F)F)ccn2)n1 (stereo not drawn) [Example 133, (1-Methyl-1H-imidazol-4-yl)-{3-[2-(2-methyl-pyrrolidin-1-yl)-6-(4-trifluoromethyl-pyridin-2-ylamino)-pyridin-4-yl]-pyrrolidin-1-yl}-methanone] | 0.00066 |
| CC(=O)N1CCC(c2cc(Nc3cc(C)ccn3)nc(-c3cnn(C)c3)c2)CC1 [Example 134, 1-[2′-(1-Methyl-1H-pyrazol-4-yl)-6′-(4-methyl-pyridin-2-ylamino)-3,4,5,6-tetrahydro-2H-[4,4′]bipyridinyl-1-yl]-ethanone] | 0.03 |
| Cc1ccnc(Nc2cc(C3CCN(C4COC4)CC3)cc(N3CCC[C@H]3C)n2)c1 [Example 135, (4-Methyl-pyridin-2-yl)-[6-((R)-2-methyl-pyrrolidin-1-yl)-1′-oxetan-3-yl-1′,2′,3′,4′,5′,6′-hexahydro-[4,4′]bipyridinyl-2-yl]-amine] | 0.021 |
| Cc1ccnc(Nc2cc(C3CCN(S(C)(=O)=O)CC3)cc(N3CCC[C@H]3C)n2)c1 [Example 136, [1′-Methanesulfonyl-6-((R)-2-methyl-pyrrolidin-1-yl)-1′,2′,3′,4′,5′,6′-hexahydro-[4,4′]bipyridinyl-2-yl]-(4-methyl-pyridin-2-yl)-amine] | 0.025 |
| C[C@@H]1CCCN1c1cc(C2CCN(CCF)CC2)cc(Nc2cc(C(F)(F)F)ccn2)n1 [Example 137, [1′-(2-Fluoro-ethyl)-6-((R)-2-methyl-pyrrolidin-1-yl)-1′,2′,3′,4′,5′,6′-hexahydro-[4,4′]bipyridinyl-2-yl]-(4-trifluoromethyl-pyridin-2-yl)-amine] | 0.00017 |
| CN1CCCC(c2cc(Nc3cc(C(F)(F)F)ccn3)nc(N3CCC(F)(F)C3)c2)C1 (stereo not drawn) [Example 138, [6′-(3,3-Difluoro-pyrrolidin-1-yl)-1-methyl-1,2,3,4,5,6-hexahydro-[3,4′]bipyridinyl-2′-yl]-(4-trifluoromethyl-pyridin-2-yl)-amine] | 0.00017 |
| C[C@@H]1CCCN1c1cc(C2CCN(S(C)(=O)=O)CC2)cc(Nc2cc(C(F)(F)F)ccn2)n1 [Example 139, [1′-Methanesulfonyl-6-((R)-2-methyl-pyrrolidin-1-yl)-1′,2′,3′,4′,5′,6′-hexahydro-[4,4′]bipyridinyl-2-yl]-(4-trifluoromethyl-pyridin-2-yl)-amine] | 0.0066 |
